Results taken from patent US5446023A, “Amphiphilic compounds derived from amino acids or peptides, their methods of synthesis and their application as drug delivery systems” (Alliance Pharmaceutical Corporation, priority 1992, dated 1995).

Assays:
[1] = format: physicochemical; design: formation of vesicles after sonication: dose or concentration left out as unconfirmed
Method: (§1) Product 6a (30 mg) was dissolved in a mixture of chloroform/methanol (1/1 v/v) in a round 4 mL tube. The solvent was evaporated in a rotavapor until a uniform film was obtained. The remaining traces of solvent were eliminated under vacuum. Water for injectable preparations (3.97 mL) was added to the dried product. After stirring with a Vortex for 3 minutes, sonication (BRANSON B30, 7 mm probe, Power 5, pulsed mode 50, 15 minutes) at 20° C. above the phase-transition temperature gave a bluish dispersion.
An aqueous dispersion of compound 7b ([…], 60 mM) in citric acid (2 ml, 1M pH=4) was prepared (sonication, probe 3 mm, power5, room temperature, 5 min, mean diameter=35 nm). […] Adriamycin (12 ml, 30 mM) was added to the liposomal dispersion. The amount of drug encapsulated, the stability of encapsulation over time and the release of adriamycin were measured.

[2] = Identification of vesicles by (transmission) electronic microscopy, negative staining; format: physicochemical; details: for formation of vesicles (transmission electronic microscopy): negative staining, after dispersion; for formation of vesicles: procedure of example 14, 10^-2 M; for formation of vesicles / formation of vesicles upon dispersion with water: electronic microscopy; for formation of vesicles upon dispersion with water: 10^-2 M
Method: as §1
The formation of vesicles was observed by transmission electronic microscopy by the negative staining method. The lipidic dispersion was applied on a grid covered with FORMVAR membrane. The sample was colored by depositing of a drop of phosphotungstic acid (2%, pH adjusted to 7) for 1 min. The excess acid was removed using a filter paper. The grid was then dried and the sample was examined using a PHILIPS microscope (CM2 Model) at 80 Kv.
FIG. 1 is a micrography obtained in these conditions on a 10^-2 M dispersion of product 6a.

[3] = Differential scanning calorimetry: phase transition temperature and transition enthalpy; format: physicochemical
Method: The phase transition temperatures and the transition enthalpies were determined after hydration by a known quantity of water using a SETARAM DSC-92 apparatus.
Example 22: Product 6d (16 mg) was hydrated with […] of a mixture of water/ethylene glycol 60/40 (hydratation percentage 28%).
Example 23: Product 6a (10.8 mg) was hydrated with a mixture of water/ethylene glycol 60/40 (hydration percentage 37%).

[4] = In vivo toxicity in mice, rapid intraperitoneal injection; details: mouse, in vivo, ip
Method: (§2) In vivo toxicity of products 6a, 6b, 6c in mice. A rapid intraperitoneal injection was made, of 0.5 mL (25 mL/kg animal body weight, n=10) of a dispersion of these products in physiological water.

mice [5] = assay: as above; details: 500 mg/kg
Method: as §2

[6] = test system: lymphoblastoid cell cultures of the Namalva type; assay: Toxicity on lymphoblastoid cell cultures (Namalva); format: cell-based; details: 4 days at 37° C.
Method: Example 26: The toxicity of products 6a and 6e was determined on lymphoblastoid cell cultures of the Namalva type in an RPMI medium containing 10% of foetal calf serum at 37° C. under 7% CO2, according to the method described by M. Le Blanc et al in Pharm. Res. 195 (1988).

[7] = Observation of vesicles by electronic microscopy after freeze-fracture; format: physicochemical; details: 10^-2 M dispersions
Method: One drop of lipic dispersion (about […]) was placed on a copper support. Freezing was realized by rapid immersion in liquid propane […]. The fractures were realized using a Balzers BAF 300 at -120° C. under 10^-6 mmHg with a knife cooled to -150° C. The replicas were obtained by depositing a platinum layer (10-20 A) under an angle of 35° then carbon (110-120 A) with an angle of 90°. The replicas were then immersed in water, washed, placed on a copper grid (3 mm, 300 mesh) and examined with a HITACHI 600 electronic microscope (H600) at 75 KV. […] FIG. 2 represents the photomicrographs obtained on 10^-2 M dispersions of products 6b, 7a, 7b.

human erythrocytes = assay: Hemolytic activity on human erythrocytes; format: cell-based; details: concentration of 50 g/l, 1 hour, 37° C.
Method: Example 25: The hemolytic activity of products 6h, 6i was determined by adding 2 mL of a solution of these products in physiological water to an equal volume of a 1% suspension of human erythrocytes in an isotonic phosphate buffer. After an hour of incubation at 37° C. the solutions were centrifuged. The degree of hemolysis was determined spectrophotometrically (540 nm) by comparing the quantity of hemoglobin liberated in the supernatant. Compounds 6h, 6i were not hemolytic at a concentration of 50 g/l.

[8] = In vivo toxicity in mice, rapid intravenous injection; details: mouse, in vivo, caudal vein, 25 mL/kg, 6i/Pluronic F-68 25/10 g/L, mice, read-out: tolerated dose
Method: (§3) Example 24: In vivo toxicity of product 6i in mice. A rapid intravenous injection into the caudal vein, of 0.5 mL (25 mL/kg animal body weight) of a solution of 6i in physiological water, to which Pluronic F-68 was added as dispersant (25/10 g/L, 6i/Pluronic F-68) was made.

mice [9] = assay: as above; details: 625 mg/kg, 1 month of observation, 10 mice
Method: as §3

[10] = water/ethylene glycol 60/40, hydration percentage 37%
[11] = intraperitoneal, 25 mL/kg dispersion in physiological water, mice, read-out: tolerated dose
[12] = intraperitoneal, 1 month of observation, 10 mice
[13] = water/ethylene glycol 60/40, hydration percentage 28%, -10° C. to 45° C., 2° C./min

C=CCCCCCCCCC(CCCCCCCCCCCC)NC(=O)CNC(=O)[C@H](O)[C@@H](O)[C@H](O[C@@H]1O[C@H](CO)[C@H](O)[C@H](O)[C@H]1O)[C@H](O)CO (stereo partly drawn) [Product 6a, Nα-[1-lactobionocarbonyl]-N-11[trieicos-1-en-yl] glycinamide]
stability of dispersion (particle size) [1]: at least 1 month | effect of sterilization on vesicles ([1]; 121° C. for 15 minutes): did not significantly modify these vesicles | average particle diameter Φ after sterilization ([1]; after sterilization at 121° C. for 15 minutes): 61 nm | average particle diameter Φ before sterilization ([1]; before sterilization at 121° C. for 15 minutes): 58 nm | average particle diameter Φ ([1]; dispersion after sonication 15 min): 49 nm | formation of vesicles (transmission electronic microscopy) [2]: formation of vesicles was also observed | Tc (phase transition temperature) [3, 10]: 22 °C | transition enthalpy [3, 10]: -11.6 mcal/mg | MTD at 730 h [4]: 500 mg/kg | deaths (mice [5]; mouse, in vivo, ip): no deaths occurred | effect on growth and viability of the cells [6]: did not affect the growth and viability of the cells

C=CCCCCCCCCC(CCC(F)(F)C(F)(F)C(F)(F)C(F)(F)C(F)(F)C(F)(F)C(F)(F)C(F)(F)F)NC(=O)CNC(=O)[C@H](O)[C@@H](O)[C@H](O[C@@H]1O[C@H](CO)[C@H](O)[C@H](O)[C@H]1O)[C@H](O)CO (stereo partly drawn) [Product 6b, N-α-[1-lactobionocarbonyl]-N-3-[1-(perfluooctyl)tridec-12-enyl] glycinamide]
formation of vesicles [2]: led to the formation of vesicles | formation of vesicles (freeze-fracture) [7]: formation of vesicles was established | MTD at 730 h [4, 11]: 500 mg/kg | deaths (mice [5]; [12]): no deaths occurred

C=CCCCCCCCCC(CCC(F)(F)C(F)(F)C(F)(F)C(F)(F)C(F)(F)C(F)(F)F)NC(=O)CNC(=O)[C@H](O)[C@@H](O)[C@H](O[C@@H]1O[C@H](CO)[C@H](O)[C@H](O)[C@H]1O)[C@H](O)CO (stereo partly drawn) [Product 6c]
MTD at 730 h [4, 11]: 500 mg/kg | deaths (mice [5]; [12]): no deaths occurred

CCCCCCCCCCCCC(CCCCCCCCCCC)NC(=O)CNC(=O)[C@H](O)[C@@H](O)[C@H](O[C@@H]1O[C@H](CO)[C@H](O)[C@H](O)[C@H]1O)[C@H](O)CO (stereo partly drawn) [Product 6d, N-α-1-[lactobionocarbonyl]-N-12-[tetraeicosyl] glycinamide]
formation of vesicles [2]: led to the formation of vesicles | Tc (phase transition temperature) [3, 13]: 14 °C | transition enthalpy [3, 13]: -10.29 mcal/mg

CCCCCCCCCC(CCC(F)(F)C(F)(F)C(F)(F)C(F)(F)C(F)(F)C(F)(F)F)NC(=O)CNC(=O)[C@H](O)[C@@H](O)[C@H](O[C@@H]1O[C@H](CO)[C@H](O)[C@H](O)[C@H]1O)[C@H](O)CO (stereo partly drawn) [Product 6e, N-α-1-[lactobionocarbonyl]-N-3-[1-(perfluorohexyl)dodecyl] glycinamide]
formation of vesicles after sonication ([1]; sonication 20 minutes): led to the formation of vesicles | average diameter of vesicles after sterilization ([1]; sonication 20 minutes, after sterilization): 318 nm | effect on growth and viability of the cells [6]: did not affect the growth and viability of the cells

O=C(CNC(=O)[C@H](O)[C@@H](O)[C@H](O[C@@H]1O[C@H](CO)[C@H](O)[C@H](O)[C@H]1O)[C@H](O)CO)NCCC(F)(F)C(F)(F)C(F)(F)C(F)(F)C(F)(F)C(F)(F)F [Product 6h, Nα-1-[lactobionocarbonyl]N-1-[2-(perfluorohexyl)ethyl] glycinamide]
hemolytic activity (human erythrocytes): not hemolytic | effect on growth and viability of the cells [6]: did not affect the growth and viability of the cells

O=C(CNC(=O)[C@H](O)[C@@H](O)[C@H](O[C@@H]1O[C@H](CO)[C@H](O)[C@H](O)[C@H]1O)[C@H](O)CO)NCCC(F)(F)C(F)(F)C(F)(F)C(F)(F)C(F)(F)C(F)(F)C(F)(F)C(F)(F)F [Product 6i]
MTD at 730 h [8]: 625 mg/kg | deaths (mice [9]): no deaths occurred | hemolytic activity (human erythrocytes): not hemolytic | effect on growth and viability of the cells [6]: did not affect the growth and viability of the cells

CCCCCCCCCC(CCC(F)(F)C(F)(F)C(F)(F)C(F)(F)C(F)(F)C(F)(F)F)NC(=O)CNC(=O)CNC(=O)[C@H](O)[C@@H](O)[C@H](O[C@@H]1O[C@H](CO)[C@H](O)[C@H](O)[C@H]1O)[C@H](O)CO (stereo partly drawn) [Product 7a]
formation of vesicles upon dispersion with water [2]: forms monolayered vesicles almost instantaneously | formation of vesicles (transmission electronic microscopy) [2]: formation of vesicles was also observed | formation of vesicles (freeze-fracture) [7]: formation of vesicles was established

C=CCCCCCCCCC(CCCCCCCCCCCC)NC(=O)CNC(=O)CNC(=O)[C@H](O)[C@@H](O)[C@H](O[C@@H]1O[C@H](CO)[C@H](O)[C@H](O)[C@H]1O)[C@H](O)CO (stereo partly drawn) [Product 7b, N-α-(N-α-1-lactobionocarbonyl)-glycyl-N-11-(trieicos-1-enyl) glycinamide]
mean diameter of liposomal dispersion ([1]; 60 mM in citric acid 1M pH=4, sonication 5 min, room temperature): 35 nm | formation of vesicles upon dispersion with water [2]: forms monolayered vesicles almost instantaneously | formation of vesicles (transmission electronic microscopy) [2]: formation of vesicles was also observed | formation of vesicles (freeze-fracture) [7]: formation of vesicles was established
